Assay results from paper PMC9295122, “Sialic Acid Derivatives Inhibit SiaT Transporters and Delay Bacterial Growth” (ACS Chemical Biology, 2022).
In brackets after ≈: the same amount, converted by molar mass. Like-named read-outs stand apart in the source and are kept apart here.

Tests used:
SaSiaT [1] = molecular target: T1, SaSiaT (Staphylococcus aureus, UniProt A0A0H2XJ46); assay: nanoDSF thermal shift assay, SaSiaT; type: binding; details: for Average 1 / Average 2 / Average 3 / Replicate 1 / Replicate 2 / Replicate 3: SaSiaT Tm; for Average 1: average of experiment 1; for Average 2: average of experiment 2; for Average 3: average of experiment 3; for Replicate 1: experiment 1, second capillary; for Replicate 1 / Replicate 2 / Replicate 3 / Tm 1 / Tm2 / Tm 3 / Overall average (Tm): 1.25 mM; for Replicate 2: experiment 2, second capillary; for Replicate 3: experiment 3, second capillary; for Tm 1 / Tm2 / Tm 3 / Overall average (Tm): SaSiaT; for Tm 1: experiment 1, first capillary; for Tm2: experiment 2, first capillary; for Tm 3: experiment 3, first capillary; for Overall average (Tm): three experiments
Outline: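 Protein at 2 μM in PBS with 0.0174% (w/v) DDM and ligand at 1.25 mM were heated from 25 to 95 °C at 1 °C/min, with 330/350 nm fluorescence ratio and its first derivative giving Tm. ΔTm is relative to the Neu5Ac Tm, averaged over 3 experiments with 2 capillaries each.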

SaSiaT [2] = molecular target: T1, SaSiaT; assay: Isothermal titration calorimetry, SaSiaT; type: binding
Experimental: (§1) The binding thermodynamic analysis performed via isothermal titration calorimetry (ITC) provides insights into dissociation constants (Kd) and the binding driving forces of compounds 3a, 3e, and 3f with PmSiaT and SaSiaT.
(§2) Isothermal titration calorimetric experiments were performed on an ITC200 instrument (MicroCal, Northampton, USA) at 25 °C using standard instrument settings (reference power of 6 μcal s^–1, stirring speed of 750 rpm, feedback mode high, and filter period of 2 s). Protein solutions were dialyzed against ITC buffer (50 mM Tris–HCl, 150 mM NaCl, with 0.0174% (w/v) DDM, pH 8.0 at 5 °C) prior to the experiments, and all the samples were prepared using the dialysate buffer to minimize dilution effects. Protein concentrations were determined spectrophotometrically with the specific absorbance at 280 nm employing an extinction coefficient of 76,445 mol^–1 cm^–1 for PmSiaT and 75,750 M^–1 cm^–1 for SaSiaT. […] In a typical experiment, a 0.3–1.0 mM inhibitor solution was titrated to a solution containing 30–50 μM of PmSiaT or 13–20 μM of SaSiaT to ensure >90% saturation. Baseline correction, peak integration, and nonlinear regression analysis of experimental data were performed using the NITPIC (version 1.2.2.)[41] and SEDPHAT (version 12.1b)[42] software packages. The stoichiometry parameter was manually constrained to a value of 1. Experiments were performed in triplicate and the 68% confidence intervals from global fitting of three experiments were calculated as an estimate of the experimental error. All the titration curves can be found in Figures S10–S15.

Plasma stability, mouse = type: in vitro ADME; details: 1 μM, 37 °C
Experimental: (§3) The reaction was started by the addition of the compound to blank plasma in LC vials after preincubation at 37 °C. The initial compound concentration was 1 μM. The reaction was stopped by the addition of ACN at seven time points (0, 0.5, 1, 2, 4, 6, and 23 h). Time point 0 h was about 15–20 s after spiking the plasma with the compound. The samples were centrifuged and the supernatant diluted and analyzed by LC–MS/MS to determine the % of compound remaining relative to the initial concentration of compound.

PmSiaT = molecular target: T2, PmSiaT (Proteus mirabilis, UniProt B4EZY7); assay: Isothermal titration calorimetry, PmSiaT; type: binding
T2 construct: made in house
T2 sequence (B4EZY7 1-496): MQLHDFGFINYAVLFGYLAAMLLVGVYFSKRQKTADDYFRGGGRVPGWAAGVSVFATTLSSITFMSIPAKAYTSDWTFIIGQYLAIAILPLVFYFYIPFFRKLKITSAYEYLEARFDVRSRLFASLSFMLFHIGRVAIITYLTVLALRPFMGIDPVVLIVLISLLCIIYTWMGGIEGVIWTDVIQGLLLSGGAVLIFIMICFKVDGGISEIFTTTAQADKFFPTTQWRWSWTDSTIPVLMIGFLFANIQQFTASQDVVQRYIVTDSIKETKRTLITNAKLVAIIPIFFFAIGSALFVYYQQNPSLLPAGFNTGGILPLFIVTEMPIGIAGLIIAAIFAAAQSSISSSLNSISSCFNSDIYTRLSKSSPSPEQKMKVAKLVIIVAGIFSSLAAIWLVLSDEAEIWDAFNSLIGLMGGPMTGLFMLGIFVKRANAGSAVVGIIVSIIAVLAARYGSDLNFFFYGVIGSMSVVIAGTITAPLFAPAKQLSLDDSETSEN
Experimental: as §1, §2

Solubility screen = type: physicochemical; details: aqueous buffer, kinetic from dmso stock; 100 mM phosphate buffer, pH 7.4, 1% DMSO; read-out: solubility (solubility screening)
Experimental: The compounds were dissolved in 10 mM DMSO solutions. The solubility was assessed by dilution in 0.1 M phosphate buffer pH 7.4 to a concentration of 100 μM.

[3] = Plasma stability, mini pig; type: in vitro ADME; details: 1 μM, 37 °C
Experimental: as §3

Solid solubility = type: physicochemical; details: phosphate buffer, pH 7.4, aqueous buffer, thermodynamic from solid; from solid material, tested up to 2000 μM; read-out: Solid solubility in 0.1 M phosphate buffer pH 7.4
Excerpt: Duplicate samples per compound.

[4] = ITC, 25 °C, read-out: SaSiaT Kd

T1 sequence (A0A0H2XJ46 entry or part of it): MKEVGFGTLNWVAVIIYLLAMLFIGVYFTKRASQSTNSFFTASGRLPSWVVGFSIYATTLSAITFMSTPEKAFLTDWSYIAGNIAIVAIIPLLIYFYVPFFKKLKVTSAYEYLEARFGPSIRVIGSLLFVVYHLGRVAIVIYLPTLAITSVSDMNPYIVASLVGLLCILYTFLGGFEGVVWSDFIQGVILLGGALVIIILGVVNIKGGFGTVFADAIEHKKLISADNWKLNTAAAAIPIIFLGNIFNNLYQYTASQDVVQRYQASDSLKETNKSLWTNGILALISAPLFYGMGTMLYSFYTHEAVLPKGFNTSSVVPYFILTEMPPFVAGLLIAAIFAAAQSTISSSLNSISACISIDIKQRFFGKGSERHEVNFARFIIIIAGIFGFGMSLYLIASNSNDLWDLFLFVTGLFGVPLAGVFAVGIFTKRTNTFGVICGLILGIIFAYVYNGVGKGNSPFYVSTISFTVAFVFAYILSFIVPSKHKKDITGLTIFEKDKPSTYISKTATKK

| SMILES | Average 1 (SaSiaT [1]) [°C] | Average 2 (SaSiaT [1]) [°C] | Average 3 (SaSiaT [1]) [°C] | Replicate 1 (SaSiaT [1]) [°C] | Replicate 2 (SaSiaT [1]) [°C] | Replicate 3 (SaSiaT [1]) [°C] | Tm 1 (SaSiaT [1]) [°C] | Tm2 (SaSiaT [1]) [°C] | Tm 3 (SaSiaT [1]) [°C] | Overall average (Tm) (SaSiaT [1]) [°C] | SaSiaT -TΔS° (SaSiaT [2]; ITC) [kcal/mol] | SaSiaT ΔG° (SaSiaT [2]; ITC) [kcal/mol] | SaSiaT ΔH° (SaSiaT [2]; ITC) [kcal/mol] | Kd (SaSiaT [2]; [4]) [µM] | In vitro plasma stability (% compound remaining after 23 h) (Plasma stability, mouse) [%] | PmSiaT -TΔS° (PmSiaT; ITC) [kcal/mol] | PmSiaT ΔG° (PmSiaT; ITC) [kcal/mol] | PmSiaT ΔH° (PmSiaT; ITC) [kcal/mol] | Kd (PmSiaT; PmSiaT Kd, ITC, 25 °C) [µM] | Kd (PmSiaT; PmSiaT Kd, ITC, Table S4) [µM] | also measured |
| --- | --- | --- | --- | --- | --- | --- | --- | --- | --- | --- | --- | --- | --- | --- | --- | --- | --- | --- | --- | --- | --- |
| CC(=O)NC1C(OCc2ccccc2)CC(O)(C(=O)O)OC1C(O)C(O)CO (stereo not drawn) [Compound 3a] | 56.2 | 55.7 | 56.3 | 56.1 | 55.8 | 56.1 | 56.2 | 55.7 | 56.6 | 56.1 | -16 | -6.91 | 9.08 | 8.8 ± 2.7 | 100 | -13.9 | -6.91 | 7 | 9 ± 3.2 | 8.77 | solubility (Solubility screen): > 95 µM; In vitro plasma stability (% compound remaining after 23 h) [3]: 100%; solubility (Solid solubility): > 2000 µM |
| CC(=O)NC1C(OCc2cc(F)cc(F)c2)CC(O)(C(=O)O)OC1C(O)C(O)CO (stereo not drawn) [Compound 3e] | 57.3 | 56.7 | 57.1 | 57.3 | 56.7 | 56.9 | 57.3 | 56.6 | 57.2 | 57.0 | -16.5 | -7.36 | 9.15 | 4.1 ± 2.1 | 100 | -15.7 | -7.12 | 8.58 | 6.2 ± 2.8 | 6.07 | affinity increase for SaSiaT (SaSiaT [2]; compared to Neu5Ac): 31 fold; solubility (Solubility screen): > 95 µM; In vitro plasma stability (% compound remaining after 23 h) [3]: 100%; solubility (Solid solubility): > 2000 µM |
| CC(=O)NC1C(OCc2cc(Br)cc(Br)c2)CC(O)(C(=O)O)OC1C(O)C(O)CO (stereo not drawn) [Compound 3f] | 53.1 | 54.0 | 54.4 | 53.1 | 54.0 | 54.3 | 53.1 | 54.0 | 54.4 | 53.8 | -13.1 | -6.55 | 6.57 | 15.7 ± 7.3 | 100 | -17.8 | -8.96 | 8.87 | 0.27 ± 0.14 | 0.272 | ΔTm (SaSiaT [1]; nanoDSF, relative to Neu5Ac, ligand 1.25 mM, <−5 °C nonbinder): 2.6 ± 0.7 °C; affinity increase of binding for PmSiaT (PmSiaT; compared to the natural substrate Neu5Ac): 180 fold; solubility (Solubility screen): > 95 µM; In vitro plasma stability (% compound remaining after 23 h) [3]: 39%; solubility (Solid solubility): 1630 µM (≈ 908 µg/mL) |
| CC(=O)N[C@H]1[C@H]([C@H](O)[C@H](O)CO)OC(O)(C(=O)O)C[C@@H]1O (stereo partly drawn) [Neu5Ac, 5-N-acetyl neuraminic acid, reference compound] | 51.3 | 51.1 | 51.3 | 51.4 | 51.4 | 51.0 | 51.3 | 50.9 | 51.6 | 51.2 | -14.7 | -5.31 | 9.37 | – | – | -12.6 | -5.86 | 6.72 | – | – | Kd (SaSiaT [2]): 130 ± 35 µM; Kd (PmSiaT): 50 ± 9 µM |
